In US20260130885A1, “ANTIMICROBIAL COMPOSITIONS, PHARMACEUTICAL COMPOSITIONS AND USE THEREOF” (priority 2022, published 2026):
≈ marks a conversion by molar mass, not a printed value. Read-outs that look alike come from different tables or passages of the source.

Key:
MRSA USA300 = assay: Time-kill kinetics (cfu assay); assay type: cell-based, Staphylococcus aureus; details: SC5005 4×MIC, 1 mg/L; FIG. 1
Method: The number of viable bacteria in broth after each exposure period was enumerated by a cfu assay and expressed as cfu/mL; the data shown are the mean±SD (standard deviation) of independent experiments. […] The number of viable bacteria in the broth after each exposure period was calculated by a cfu assay (cfu/mL); the data are shown as the mean±SD of three independent experiments (n=3 for each group). Since the standard deviation of each point is very small, the error line is not shown in each graph. The horizontal dashed line in the upper left graph and the upper right graph represents […] of the bacterial cells killed. In addition, the blank controls in FIG. 1 are shown as filled diamonds.
In this experiment, the inventor analyzed the time-kill kinetics of SC5005, DHA, and a combination thereof against Staphylococcus aureus NCTC8325 and MRSA USA300, and the results are shown in FIG. 1. It can be seen in FIG. 1 that SC5005 killed more than 99.9% of the bacteria within 24 hours. […] Besides, it is well known in the art that Staphylococcus aureus can enter a dormant state (i.e., become the so-called persister cells) and develop resistance to antibiotic treatment, thus leading to repeated bacterial infections.

MRSA SCCmec VT = assay: Antibacterial activity assay (MIC, broth microdilution); assay type: cell-based, Staphylococcus aureus; details: for MIC: Staphylococcus aureus, MRSA
[1] = Antiproliferation assay (MTT); assay type: cell-based, murine; details: mouse, RAW264.7 macrophage cells, read-out: CC50 of SC5005
Method: FIG. 2: The biofilms of S. aureus NCTC8325 (the upper left graph) and MRSA USA300 (the upper right graph) were treated with increasing concentrations of blank control (Mock), DHA, daptomycin (DAP), vancomycin (VAN), SC5005, and SC5005 in combination with DHA for 24 hours. The number of viable bacteria was then determined using a cfu assay. The data represent individual experiments and are shown as the mean±SD (n=3 per group). ns, nonsignificant, p>0.05; *p<0.05; **p<0.01; ***p<0.001. (The lower left graph) the biofilms of MRSA USA300 were treated with blank control (Mock) or SC5005 along with 80 mg/L DHA for 1, 3 or 10 minute(s). The viable bacteria in the biofilms harvested and enumerated using a cfu assay. The data represent independent experiments and are shown as mean±SD (n=3 per group). ns, nonsignificant, p>0.05; *p<0.05; **p<0.01; ***p<0.001 (The lower right graph) RAW264.7 cells were exposed to a blank control (Mock) or increasing concentrations of SC5005 and 80 mg/L DHA for […]. The viability of cells was determined by the MTT assay and expressed as a percentage relative to mock (DMSO and ethanol)-treated cells. The data shown are the mean±SD (n=3 per group).
(§1) The murine macrophage cell line RAW264.7 (BCRC) and human cervical epithelioid carcinoma cell line HeLa (BCRC) were maintained in Dulbecco's modified Eagle's medium (DMEM; Gibco-BRL) supplemented with 10% heat-inactivated FBS (Gibco-BRL). The human embryonic kidney cell line HEK-293 (BCRC) and the immortalized nontumorigenic keratinocyte cell line HaCaT (obtained from Dr. Yung-Chiy Chang, National Taiwan University, Taiwan) were maintained in Roswell Park Memorial Institute (RPMI; Gibco-BRL) medium supplemented with 10% heat-inactivated FBS. Cells were cultured in T-75 flasks at 37° C. in a 5% CO2 atmosphere.
(§2) The effects of SC5005 and DHA on the viability of mammalian cells were assessed using a 3-(4,5-dimethylthiazol-2-yl)-2,5-diphenyl-2H-tetrazolium bromide (MTT) assay in six replicates per treatment group. Briefly, cells were seeded into 96-well, flat-bottomed plates at 10^4 cells/well, cultured for 24 hours, and then exposed to SC5005 at concentrations ranging from 5-30 mg/L or the combination of SC5005 with designated concentrations of DHA for 24 hours. Controls were treated with DMSO and ethanol vehicles at concentrations equal to those for drug-treated cells. At the end of treatments, the medium was replaced with 0.5 g/L MTT-containing culture medium, and the cells were incubated in a CO2 incubator at 37° C. for an additional 1.5 hours. Supernatants were removed from the wells, and the reduced MTT dye was solubilized in DMSO followed by measuring the absorbance at 570 nm of each well using a VersaMax microplate reader (Molecular Devices, USA).

VRSA SJC1200 = assay: Antibacterial activity assay (MIC, broth microdilution); assay type: cell-based, Staphylococcus aureus; details: for MIC: Staphylococcus aureus, VRSA
S. aureus ATCC29213 = assay: as above; assay type: cell-based, Staphylococcus aureus; details: for MIC: Staphylococcus aureus
S. aureus DAP-NS = assay: as above; assay type: cell-based, Staphylococcus aureus; details: for MIC: Staphylococcus aureus
S. aureus NCTC8325 = assay: as above; assay type: cell-based, Staphylococcus aureus; details: for MIC: Staphylococcus aureus
[2] = Antiproliferation assay (MTT); assay type: cell-based; details: human, read-out: CC50 of SC5005
Text: as §1, §2

MRSA ATCC49476 = assay: Antibacterial activity assay (MIC, broth microdilution); assay type: cell-based, Staphylococcus aureus; details: for MIC: Staphylococcus aureus
MRSA ATCC33592 = assay: as above; assay type: cell-based, Staphylococcus aureus; details: for MIC: Staphylococcus aureus

O=C(Nc1ccc(Cl)c(C(F)(F)F)c1)C(CCCl)C(=O)Nc1ccc(Cl)c(C(F)(F)F)c1 [SC5005]
bacteria killed within 24 hours (MRSA USA300): more than 99.9% | combination effect (MRSA SCCmec VT; MIC, +8 mg/L DHA): (Syn) (Synergy (Syn) was defined as an FICI≤0.5) | MIC (MRSA SCCmec VT; +8 mg/L DHA): 0.0019 ng/mL (≈ 0.00364 nM) | MIC (MRSA SCCmec VT; agent alone): 250 ng/mL (≈ 479 nM) | CC50 at 24 h ([1]; DHA 0 mg/L): 19.5 ± 0.6 µg/mL | CC50 at 24 h ([1]; DHA 4 mg/L): 22.6 ± 0.8 µg/mL | CC50 at 24 h ([1]; DHA 8 mg/L): 19.7 ± 2.5 µg/mL | CC50 at 24 h ([1]; DHA 16 mg/L): 21.2 ± 2.3 µg/mL | combination effect (VRSA SJC1200; MIC, +8 mg/L DHA): (Syn) (Synergy (Syn) was defined as an FICI≤0.5) | MIC (VRSA SJC1200; +8 mg/L DHA): 0.0019 ng/mL (≈ 0.00364 nM) | MIC (VRSA SJC1200; agent alone): 250 ng/mL (≈ 479 nM) | combination effect (S. aureus ATCC29213; MIC, +8 mg/L DHA): (Syn) (Synergy (Syn) was defined as an FICI≤0.5) | MIC (S. aureus ATCC29213; ATCC29213, +8 mg/L DHA): 0.0039 µg/mL (≈ 7.48 nM) | MIC (S. aureus ATCC29213; ATCC29213, agent alone): 0.25 µg/mL (≈ 479 nM) | combination effect (S. aureus DAP-NS; MIC, +8 mg/L DHA): (Syn) (Synergy (Syn) was defined as an FICI≤0.5) | MIC (S. aureus DAP-NS; +8 mg/L DHA): 0.0019 ng/mL (≈ 0.00364 nM) | MIC (S. aureus DAP-NS; agent alone): 250 ng/mL (≈ 479 nM) | combination effect (S. aureus NCTC8325; MIC, +8 mg/L DHA): (Syn) (Synergy (Syn) was defined as an FICI≤0.5) | MIC (S. aureus NCTC8325; NCTC8325, +8 mg/L DHA): 0.0019 ng/mL (≈ 0.00364 nM) | MIC (S. aureus NCTC8325; NCTC8325, agent alone): 250 ng/mL (≈ 479 nM) | CC50 at 24 h ([2]; HEK-293 cells, DHA 0 mg/L): 14.1 ± 1.4 µg/mL | CC50 at 24 h ([2]; HEK-293 cells, DHA 4 mg/L): 15.6 ± 0.6 µg/mL | CC50 at 24 h ([2]; HEK-293 cells, DHA 8 mg/L): 14.9 ± 1.6 µg/mL | CC50 at 24 h ([2]; HEK-293 cells, DHA 16 mg/L): 14 ± 0.8 µg/mL | CC50 at 24 h ([2]; HaCaT keratinocyte cells, DHA 0 mg/L): 18 ± 1.7 µg/mL | CC50 at 24 h ([2]; HaCaT keratinocyte cells, DHA 4 mg/L): 19.5 ± 1.7 µg/mL | CC50 at 24 h ([2]; HaCaT keratinocyte cells, DHA 8 mg/L): 20.5 ± 0.3 µg/mL | CC50 at 24 h ([2]; HaCaT keratinocyte cells, DHA 16 mg/L): 18.1 ± 1.6 µg/mL | CC50 at 24 h ([2]; HeLa cells, DHA 0 mg/L): 22.5 ± 0.7 µg/mL | CC50 at 24 h ([2]; HeLa cells, DHA 4 mg/L): 24.2 ± 3.6 µg/mL | CC50 at 24 h ([2]; HeLa cells, DHA 8 mg/L): 21.9 ± 1.6 µg/mL | CC50 at 24 h ([2]; HeLa cells, DHA 16 mg/L): 21.4 ± 1.4 µg/mL | combination effect (MRSA ATCC49476; MIC, +8 mg/L DHA): (Syn) (Synergy (Syn) was defined as an FICI≤0.5) | MIC (MRSA ATCC49476; +8 mg/L DHA): 0.00095 ng/mL (≈ 0.00182 nM) | MIC (MRSA ATCC49476; agent alone): 250 ng/mL (≈ 479 nM) | combination effect (MRSA ATCC33592; MIC, +8 mg/L DHA): (Syn) (Synergy (Syn) was defined as an FICI≤0.5) | MIC (MRSA ATCC33592; +8 mg/L DHA): 0.00049 µg/mL (≈ 0.939 nM) | MIC (MRSA ATCC33592; agent alone): 0.25 µg/mL (≈ 479 nM)
